Reference: the NIST ThermoML archive (doi:10.1016/j.jct.2015.12.001)

Assay: wn = mass fraction of the nth substance listed
Settings: 100 kPa, Liquid, Concentric cylinders viscometry

CCN(CC)CCO [(diethylamino)ethanol] + O
viscosity [mPa·s]
Settings	w1 = 0.3001	w1 = 0.3499	w1 = 0.4001	w1 = 0.4501	w1 = 0.4999	w1 = 0.6001
303.2 K	2.96	3.34	4.56	5.06	6.11	8.41
313.2 K	2.12	2.36	3.12	3.65	4.33	5.52
323.2 K	1.59	1.81	2.23	2.69	3.07	3.74
